In patent US10947242B2, “[1,2,4]triazolo[1,5and#8208;A]pyrimidine compounds as PDE2 inhibitors” (Janssen Pharmaceutica NV, priority 2016, dated 2021):
Like-named read-outs stand apart in the source and are kept apart here.

What was measured:
[1] = target: T1, Human recombinant PDE2A (hPDE2A) (Homo sapiens, UniProt O00408); assay: In vitro assay PDE2A (SPA, 3H-cGMP hydrolysis); assay type: biochemical; details: for Emax: read-out: hPDE2A Emax
T1 construct: His tag (inferred from metal chelate purification); made in house; host or cells: Sf9 insect cells (baculovirus)
T1 sequence (O00408 whole entry): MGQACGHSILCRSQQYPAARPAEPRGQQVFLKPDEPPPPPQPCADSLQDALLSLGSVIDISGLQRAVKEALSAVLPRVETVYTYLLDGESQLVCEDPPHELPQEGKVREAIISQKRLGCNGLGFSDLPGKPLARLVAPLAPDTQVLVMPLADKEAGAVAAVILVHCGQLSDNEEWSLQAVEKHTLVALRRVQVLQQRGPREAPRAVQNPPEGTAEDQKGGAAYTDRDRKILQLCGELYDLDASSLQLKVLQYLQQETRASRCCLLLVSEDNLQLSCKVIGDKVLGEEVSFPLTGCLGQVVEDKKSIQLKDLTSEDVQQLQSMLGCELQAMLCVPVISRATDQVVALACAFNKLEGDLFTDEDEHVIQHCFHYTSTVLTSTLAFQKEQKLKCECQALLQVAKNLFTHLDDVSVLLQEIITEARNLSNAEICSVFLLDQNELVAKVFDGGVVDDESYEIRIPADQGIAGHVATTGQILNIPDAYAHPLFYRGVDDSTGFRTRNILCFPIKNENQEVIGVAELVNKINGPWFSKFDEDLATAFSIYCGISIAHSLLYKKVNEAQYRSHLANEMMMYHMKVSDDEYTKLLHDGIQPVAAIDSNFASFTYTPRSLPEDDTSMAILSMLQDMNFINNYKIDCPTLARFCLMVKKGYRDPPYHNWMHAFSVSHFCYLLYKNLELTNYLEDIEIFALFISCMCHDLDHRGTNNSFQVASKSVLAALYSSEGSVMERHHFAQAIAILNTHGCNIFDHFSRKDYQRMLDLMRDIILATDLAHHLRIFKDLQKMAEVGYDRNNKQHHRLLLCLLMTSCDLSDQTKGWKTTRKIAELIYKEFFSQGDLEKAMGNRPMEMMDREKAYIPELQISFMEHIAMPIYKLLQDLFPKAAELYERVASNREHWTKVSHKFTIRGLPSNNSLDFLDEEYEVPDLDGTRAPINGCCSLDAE

[2] = target: T2, Human recombinant PDE3A (hPDE3A) (Homo sapiens, UniProt Q14432); assay: In vitro assay PDE3A (SPA, 3H-cAMP hydrolysis); assay type: biochemical; details: for IC50: hPDE3B pIC50; for Emax: read-out: hPDE3B Emax, read-out: Emax;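 as to Emax: the method names PDE3A and the table heading PDE3B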
T2 construct: purchased Scottish Biomedical; host or cells: Sf9 insect cells
T2 sequence (Q14432 whole entry): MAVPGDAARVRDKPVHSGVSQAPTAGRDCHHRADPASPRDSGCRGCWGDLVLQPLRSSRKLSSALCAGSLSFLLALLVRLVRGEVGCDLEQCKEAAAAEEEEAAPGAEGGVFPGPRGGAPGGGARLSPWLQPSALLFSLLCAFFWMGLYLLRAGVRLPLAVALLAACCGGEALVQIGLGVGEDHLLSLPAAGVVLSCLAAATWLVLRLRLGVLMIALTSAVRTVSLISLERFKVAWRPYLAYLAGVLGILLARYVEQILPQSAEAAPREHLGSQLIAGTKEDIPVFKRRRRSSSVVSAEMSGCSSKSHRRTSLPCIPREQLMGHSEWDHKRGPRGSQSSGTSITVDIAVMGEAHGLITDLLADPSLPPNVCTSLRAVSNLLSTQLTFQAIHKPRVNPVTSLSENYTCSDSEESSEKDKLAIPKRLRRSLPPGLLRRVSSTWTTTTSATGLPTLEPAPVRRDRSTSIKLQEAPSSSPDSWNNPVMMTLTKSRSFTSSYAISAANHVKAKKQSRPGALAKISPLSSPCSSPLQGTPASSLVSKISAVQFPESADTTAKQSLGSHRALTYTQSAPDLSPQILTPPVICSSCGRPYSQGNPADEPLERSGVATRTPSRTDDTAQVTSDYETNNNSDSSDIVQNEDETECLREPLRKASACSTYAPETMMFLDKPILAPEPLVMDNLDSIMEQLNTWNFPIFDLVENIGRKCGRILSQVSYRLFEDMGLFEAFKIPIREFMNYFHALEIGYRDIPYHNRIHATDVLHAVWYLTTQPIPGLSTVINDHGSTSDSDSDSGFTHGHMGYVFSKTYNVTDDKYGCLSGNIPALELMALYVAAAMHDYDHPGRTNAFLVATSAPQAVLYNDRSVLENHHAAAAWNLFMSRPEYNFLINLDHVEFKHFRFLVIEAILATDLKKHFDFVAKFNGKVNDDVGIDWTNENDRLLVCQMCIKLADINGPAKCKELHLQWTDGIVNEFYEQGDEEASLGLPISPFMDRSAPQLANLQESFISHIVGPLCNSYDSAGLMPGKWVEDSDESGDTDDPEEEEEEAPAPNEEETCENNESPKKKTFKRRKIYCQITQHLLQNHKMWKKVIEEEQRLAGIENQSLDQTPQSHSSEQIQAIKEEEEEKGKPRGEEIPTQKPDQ
In short: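 Radiometric SPA measuring [3H]-cAMP hydrolysis (0.4 μM cAMP, 2.4 μCi/ml) over 60 min at room temperature, in Tris pH 7.8 buffer with MgCl2 and EGTA, 1% DMSO. Enzyme: recombinant human brain PDE3A expressed in Sf9 cells, used as partially purified lysate. Counts compared with enzyme-free blanks and vehicle controls.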

PDE2A = target: T3, PDE2A (Rattus norvegicus, UniProt Q01062); assay: PDE2 occupancy by test compounds, ex-vivo autoradiography with [3H]B-17a; assay type: in vivo, Male Wistar rats; details: po, 10 mg/kg, route PO (oral), percentage receptor occupancy, ex-vivo autoradiography, striatum
T3 construct: Twenty μm-thick striatal sections were cut; from tissue; host or cells: rat brain, striatal sections
T3 sequence (Q01062 1-928): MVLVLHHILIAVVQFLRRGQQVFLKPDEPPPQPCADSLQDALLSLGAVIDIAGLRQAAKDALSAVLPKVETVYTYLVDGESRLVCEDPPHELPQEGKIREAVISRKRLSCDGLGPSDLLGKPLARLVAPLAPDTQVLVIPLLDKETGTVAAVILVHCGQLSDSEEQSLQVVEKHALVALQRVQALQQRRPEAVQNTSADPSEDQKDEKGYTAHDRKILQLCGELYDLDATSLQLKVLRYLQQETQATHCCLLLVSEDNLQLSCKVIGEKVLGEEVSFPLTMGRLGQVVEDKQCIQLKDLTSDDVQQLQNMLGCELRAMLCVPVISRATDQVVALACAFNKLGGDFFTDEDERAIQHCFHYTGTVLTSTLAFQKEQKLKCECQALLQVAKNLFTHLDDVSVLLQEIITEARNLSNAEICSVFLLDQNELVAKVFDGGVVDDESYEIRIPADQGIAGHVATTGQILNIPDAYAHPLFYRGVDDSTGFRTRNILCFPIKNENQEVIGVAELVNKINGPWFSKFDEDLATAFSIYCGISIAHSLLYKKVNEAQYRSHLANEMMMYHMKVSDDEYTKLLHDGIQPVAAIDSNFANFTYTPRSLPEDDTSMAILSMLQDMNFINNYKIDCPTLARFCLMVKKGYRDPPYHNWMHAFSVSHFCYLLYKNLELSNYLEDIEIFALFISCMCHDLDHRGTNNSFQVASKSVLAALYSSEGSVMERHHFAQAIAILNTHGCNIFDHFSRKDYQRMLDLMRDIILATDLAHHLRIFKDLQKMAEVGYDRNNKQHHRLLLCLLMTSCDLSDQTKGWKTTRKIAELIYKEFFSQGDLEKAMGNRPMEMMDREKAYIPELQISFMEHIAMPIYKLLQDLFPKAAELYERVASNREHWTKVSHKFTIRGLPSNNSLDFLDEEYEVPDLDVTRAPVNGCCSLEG

[3] = target: T4, Human recombinant PDE10A (hPDE10A) (Homo sapiens, UniProt Q9Y233); assay: In vitro assay PDE10A, human clone (SPA, 3H-cAMP hydrolysis); assay type: biochemical
T4 construct: His tag (inferred from metal chelate purification); made in house; host or cells: Sf9 insect cells (baculovirus)
T4 sequence (Q9Y233 267-1055): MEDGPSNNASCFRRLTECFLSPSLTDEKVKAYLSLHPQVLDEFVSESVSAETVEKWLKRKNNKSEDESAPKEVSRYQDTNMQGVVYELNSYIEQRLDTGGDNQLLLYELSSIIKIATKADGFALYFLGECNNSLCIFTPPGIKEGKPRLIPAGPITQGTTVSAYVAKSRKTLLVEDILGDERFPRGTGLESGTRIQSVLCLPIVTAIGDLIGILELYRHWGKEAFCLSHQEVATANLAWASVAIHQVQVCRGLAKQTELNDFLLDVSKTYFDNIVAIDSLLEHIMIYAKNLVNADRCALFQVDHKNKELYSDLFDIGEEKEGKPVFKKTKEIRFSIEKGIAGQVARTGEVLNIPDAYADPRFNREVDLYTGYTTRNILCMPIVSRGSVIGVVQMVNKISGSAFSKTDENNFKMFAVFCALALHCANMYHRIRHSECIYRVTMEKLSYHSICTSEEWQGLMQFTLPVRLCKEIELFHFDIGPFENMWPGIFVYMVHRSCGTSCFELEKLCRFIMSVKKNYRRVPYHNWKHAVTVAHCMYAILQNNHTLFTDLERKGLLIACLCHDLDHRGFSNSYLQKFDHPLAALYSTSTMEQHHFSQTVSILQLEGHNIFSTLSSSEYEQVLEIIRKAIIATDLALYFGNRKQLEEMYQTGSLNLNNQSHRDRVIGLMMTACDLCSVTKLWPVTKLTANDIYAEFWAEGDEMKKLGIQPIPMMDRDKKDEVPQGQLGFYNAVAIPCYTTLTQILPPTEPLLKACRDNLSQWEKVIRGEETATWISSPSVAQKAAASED
In short: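 Hydrolysis of 3H-cAMP (60 nM cAMP, 0.008 μCi tracer) proceeded for 60 min at room temperature, with the product detected by SPA bead scintillation counting. The enzyme was hPDE10A from baculovirus-infected Sf9 cells in Tris pH 7.8 buffer with MgCl2 and EGTA, and compounds were at 1% DMSO final. Blanks lacked enzyme.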

[4] = read-out: hPDE2A pIC50 (converted)
[5] = human clone by default (no (r) mark), read-out: hPDE10A2 or rPDE10A2 Emax
[6] = human clone by default (no (r) mark), read-out: hPDE10A2 or rPDE10A2 pIC50 (converted)

Compound: Cc1cnc(Cl)cc1C(=O)N1CC[C@@H](C)[C@H](c2cc(C(F)F)nc3ncnn23)C1 [Compound 27]
- IC50 ([1]; human recombinant PDE2A, 10 μM cGMP substrate, read-out: hPDE2A pIC50 (converted)): 0.912 nM
- Emax ([1]; human recombinant PDE2A): 100%
- Emax [1]: 100%
- IC50 [1, 4]: 0.912 nM
- IC50 ([2]; read-out: pIC50 (converted)): > 10000 nM
- Emax [2]: 37%
- receptor occupancy at 10 mg/kg (PDE2A): 34%
- Emax ([3]; human clone (h), default, read-out: hPDE10A2 Emax): 88%
- IC50 ([3]; human clone (h), default, read-out: hPDE10A2 pIC50 (converted)): 1100 nM

Compound: CN1CCOc2cc(C(=O)N3[C@H]4CC[C@H](c5cc(C(F)F)nc6ncnn56)[C@@H]3CC4)ccc21 [Compound 378]
- Emax [1]: 99%
- IC50 [1, 4]: 1.7 nM
- IC50 ([2]; read-out: pIC50 (converted)): 759 nM
- Emax [2]: 96%
- Emax [3, 5]: 97%
- IC50 [3, 6]: 407 nM

Compound: Cn1cnc2cc(C(=O)N3[C@H]4CC[C@H](c5cc(C(F)F)nc6ncnn56)[C@@H]3CC4)ccc21 [Compound 379]
- Emax [1]: 102%
- IC50 [1, 4]: 11.2 nM
- IC50 ([2]; read-out: pIC50 (converted)): 5250 nM
- Emax [2]: 67%
- Emax [3, 5]: 87%
- IC50 [3, 6]: 1620 nM

Compound: Cn1ncc2cc(C(=O)N3[C@H]4CC[C@H](c5cc(C(F)F)nc6ncnn56)[C@@H]3CC4)ccc21 [Compound 380]
- Emax [1]: 101%
- IC50 [1, 4]: 5.5 nM
- IC50 ([2]; read-out: pIC50 (converted)): 3980 nM
- Emax [2]: 72%
- Emax [3, 5]: 96%
- IC50 [3, 6]: 363 nM

Compound: O=C(c1ccc2nccnc2c1)N1[C@H]2CC[C@H](c3cc(C(F)F)nc4ncnn34)[C@@H]1CC2 [Compound 381]
- Emax [1]: 99%
- IC50 [1, 4]: 7.59 nM
- Emax [2]: 48%
- Emax [3, 5]: 88%
- IC50 [3, 6]: 1320 nM

Compound: Cn1ccc2cc(C(=O)N3[C@H]4CC[C@H](c5cc(C(F)F)nc6ncnn56)[C@@H]3CC4)ncc21 [Compound 382]
- Emax [1]: 99%
- IC50 [1, 4]: 10.2 nM
- IC50 ([2]; read-out: pIC50 (converted)): > 10000 nM
- Emax [2]: 37%
- Emax [3, 5]: 75%
- IC50 [3, 6]: 3980 nM

Compound: Cc1cc([C@@H]2CN(C(=O)c3cc(C4CC4)ncc3C3CC3)CC[C@H]2C)n2ncnc2n1 [Compound 390]
- Emax [1]: 98%
- IC50 [1, 4]: 2.09 nM
- IC50 ([2]; read-out: pIC50 (converted)): 2570 nM
- Emax [2]: 84%
- Emax [3, 5]: 99%
- IC50 [3, 6]: 61.7 nM

Compound: Cc1nc(C(F)(F)F)cc(C(=O)N2CC[C@@H](C)[C@H](c3cc(C(F)F)nc4ncnn34)C2)c1F [Compound 394]
- Emax [1]: 99%
- IC50 [1, 4]: 9.33 nM
- IC50 ([2]; read-out: pIC50 (converted)): > 10000 nM
- Emax [2]: 27%
- Emax [3, 5]: 76%
- IC50 [3, 6]: 2240 nM

Compound: Cc1cc(C(=O)N2CC[C@@H](C)[C@H](c3cc(C(F)F)nc4ncnn34)C2)c(F)c(C(F)(F)F)n1 [Compound 396]
- Emax [1]: 98%
- IC50 [1, 4]: 15.1 nM
- IC50 ([2]; read-out: pIC50 (converted)): > 10000 nM
- Emax [2]: 56%
- Emax [3, 5]: 84%
- IC50 [3, 6]: 1480 nM

Compound: Cc1cc(C(=O)N2[C@H]3CC[C@H](c4cc(C(F)F)nc5ncnn45)[C@@H]2CC3)c(F)c(C)n1 [Compound 400]
- IC50 ([1]; hPDE2A pIC50): 22.4 nM
- Emax [1]: 99%
- IC50 [2]: > 10000 nM
- Emax [2]: 16%
- IC50 ([3]; hPDE10A2 or rPDE10A2 pIC50, human clone by default (no (r) mark)): > 10000 nM
- Emax [3, 5]: 41%

Compound: Cc1cc(C(=O)N2CC[C@@H](C)[C@H](c3cc(C(F)F)nc4ncnn34)C2)cc(C)[n+]1[O-] [Compound 402]
- IC50 ([1]; hPDE2A pIC50): 26.3 nM
- Emax [1]: 100%
- IC50 ([2]; read-out: pIC50 (converted)): > 10000 nM
- Emax [2]: 28%
- Emax [3, 5]: 87%
- IC50 [3, 6]: 1480 nM
